# From ChEMBL document CHEMBL3880408, “MgluR5 modulators” (2008)
# Assay: Ratio of drug level in brain to plasma in Sprague-Dawley rat by HPLC and MS-MS method
# Type: ADME, cell-free
# Conditions: read-out: BPR
row,Kp,Structure (SMILES)
1,< 0.5,Cc1cccc(-n2nnc([C@@H](C)Oc3nnc(-c4cn[nH]c(=O)c4)n3C)n2)c1
2,< 0.5,C[C@@H](Oc1nnc(-c2cn[nH]c(=O)c2)n1C)c1cc(-c2cccc(Cl)c2)on1
3,< 0.5,C[C@@H](Oc1nnc(-c2ccn(C)c(=O)c2)n1C)c1cc(-c2cccc(Cl)c2)on1
4,< 0.5,C[C@@H](Oc1nnc(-c2cc[nH]c(=O)c2)n1C)c1noc(-c2cccc(Cl)c2)n1
5,< 0.5,C[C@@H](Oc1nnc(-c2cc[nH]c(=O)c2)n1C)c1nnn(-c2cccc(Cl)c2)n1
6,< 0.5,Cc1cccc(-c2cc([C@@H](C)Oc3nnc(-c4cn[nH]c(=O)c4)n3C)no2)c1
7,< 0.5,Cn1c(OCc2cc(-c3cccc(Cl)c3)on2)nnc1-c1cc[nH]c(=O)c1
8,< 0.5,C[C@@H](Oc1nnc(-c2cn[nH]c(=O)c2)n1C)c1nnn(-c2cccc(Cl)c2)n1
9,< 0.5,C[C@@H](Oc1nnc(-c2cn[nH]c(=O)c2)n1C)c1noc(-c2cccc(Cl)c2)n1
10,< 0.5,C[C@@H](Oc1nnc(-c2ccn(C)c(=O)c2)n1C)c1noc(-c2cccc(Cl)c2)n1
